What follows are compounds tested against recombinant, human, C-terminally-His tagged NAMPT (Homo sapiens, UniProt P43490) (assay: Time-Resolved Fluorescence Resonance Energy Transfer (TR-FRET) binding assay of NAMPT). Conditions: 6.8 nM NAMPT, 200 nM probe (Oregon Green 488-conjugated APO866), 2-3 hours.
Procedure: Time-Resolved Fluorescence Resonance Energy Transfer (TR-FRET) Binding Assay of NAMPT
Plates were read with Envision (Laser Lantha low volume protocol) after 2 to 3 hours.

recombinant, human, C-terminally-His tagged NAMPT, sequence (P43490 whole entry): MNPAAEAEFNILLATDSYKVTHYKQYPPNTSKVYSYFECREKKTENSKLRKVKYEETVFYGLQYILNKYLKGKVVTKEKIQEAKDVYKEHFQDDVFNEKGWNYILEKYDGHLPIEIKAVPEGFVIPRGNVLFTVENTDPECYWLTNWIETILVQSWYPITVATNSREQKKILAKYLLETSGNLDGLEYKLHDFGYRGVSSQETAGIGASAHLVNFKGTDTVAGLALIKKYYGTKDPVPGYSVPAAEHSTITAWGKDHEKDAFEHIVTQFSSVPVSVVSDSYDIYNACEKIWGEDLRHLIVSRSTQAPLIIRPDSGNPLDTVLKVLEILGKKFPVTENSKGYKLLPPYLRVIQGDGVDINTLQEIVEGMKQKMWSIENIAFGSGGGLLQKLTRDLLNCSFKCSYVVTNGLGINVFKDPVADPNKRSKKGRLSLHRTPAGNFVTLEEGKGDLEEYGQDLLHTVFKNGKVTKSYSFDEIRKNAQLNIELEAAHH

Structure (SMILES)	IC50 [nM]
O=C(NCCN1CCCCCC1)c1ccc(NC(=O)N2Cc3ccccc3C2)cc1 [Example 1, N-(4-{[2-(azepan-1-yl)ethyl]carbamoyl}phenyl)-1,3-dihydro-2H-isoindole-2-carboxamide]	55.6
O=C(NCCN1CCNC1=O)c1ccc(NC(=O)N2Cc3ccccc3C2)cc1 [Example 3, N-(4-{[2-(2-oxoimidazolidin-1-yl)ethyl]carbamoyl}phenyl)-1,3-dihydro-2H-isoindole-2-carboxamide]	32.6
O=C(NCCC1CCCCO1)c1ccc(NC(=O)N2Cc3ccccc3C2)cc1 (stereo not drawn) [Example 4, N-(4-{[2-(tetrahydro-2H-pyran-2-yl)ethyl]carbamoyl}phenyl)-1,3-dihydro-2H-isoindole-2-carboxamide]	4.08
CC1(CNC(=O)c2ccc(NC(=O)N3Cc4ccccc4C3)cc2)CCCO1 (stereo not drawn) [Example 5, N-(4-{[(2-methyltetrahydrofuran-2-yl)methyl]carbamoyl}phenyl)-1,3-dihydro-2H-isoindole-2-carboxamide]	6.92
O=C(NCC1COC2(CCNCC2)C1)c1ccc(NC(=O)N2Cc3ccccc3C2)cc1 (stereo not drawn) [Example 7, N-{4-[(1-oxa-8-azaspiro[4.5]dec-3-ylmethyl)carbamoyl]phenyl}-1,3-dihydro-2H-isoindole-2-carboxamide]	7.39
O=C(Nc1ccc(C(=O)N2CCC3(CC2)COC3)nn1)N1Cc2ccccc2C1 [Example 8, N-[6-(2-oxa-7-azaspiro[3.5]non-7-ylcarbonyl)pyridazin-3-yl]-1,3-dihydro-2H-isoindole-2-carboxamide]	92.2
O=C(Nc1ccc(C(=O)N2CC3COCC3C2)nn1)N1Cc2ccccc2C1 (stereo not drawn) [Example 9, N-[6-(tetrahydro-1H-furo[3,4-c]pyrrol-5(3H)-ylcarbonyl)pyridazin-3-yl]-1,3-dihydro-2H-isoindole-2-carboxamide]	442
O=C(Nc1ccc(C(=O)N2CCC3OCCC3C2)nn1)N1Cc2ccccc2C1 (stereo not drawn) [Example 10, N-[6-(hexahydrofuro[3,2-c]pyridin-5(4H)-ylcarbonyl)pyridazin-3-yl]-1,3-dihydro-2H-isoindole-2-carboxamide]	952
O=C(Nc1ccc(C(=O)N2CC3CCOC3C2)nn1)N1Cc2ccccc2C1 (stereo not drawn) [Example 11, N-[6-(hexahydro-5H-furo[2,3-c]pyrrol-5-ylcarbonyl)pyridazin-3-yl]-1,3-dihydro-2H-isoindole-2-carboxamide]	270
O=C(Nc1ccc(C(=O)N2CCOC3(CCOC3)C2)nn1)N1Cc2ccccc2C1 (stereo not drawn) [Example 12, N-[6-(2,6-dioxa-9-azaspiro[4.5]dec-9-ylcarbonyl)pyridazin-3-yl]-1,3-dihydro-2H-isoindole-2-carboxamide]	2050
O=C(Nc1ccc(C(=O)N2CC3(COC3)C2)nn1)N1Cc2ccccc2C1 [Example 13, N-[6-(2-oxa-6-azaspiro[3.3]hept-6-ylcarbonyl)pyridazin-3-yl]-1,3-dihydro-2H-isoindole-2-carboxamide]	626
O=C(Nc1ccc(C(=O)N2CCCC3(COC3)C2)nn1)N1Cc2ccccc2C1 [Example 14, N-[6-(2-oxa-6-azaspiro[3.5]non-6-ylcarbonyl)pyridazin-3-yl]-1,3-dihydro-2H-isoindole-2-carboxamide]	885
O=C(Nc1ccc(C(=O)N2CCC3(CCOC3)C2)nn1)N1Cc2ccccc2C1 (stereo not drawn) [Example 15, N-[6-(2-oxa-7-azaspiro[4.4]non-7-ylcarbonyl)pyridazin-3-yl]-1,3-dihydro-2H-isoindole-2-carboxamide]	578
O=C(Nc1ccc(C(=O)N2CCC3(CNCCC3(F)F)C2)nn1)N1Cc2ccccc2C1 (stereo not drawn) [Example 16, N-{6-[(10,10-difluoro-2,7-diazaspiro[4.5]dec-2-yl)carbonyl]pyridazin-3-yl}-1,3-dihydro-2H-isoindole-2-carboxamide]	116
N#CC1COC2(CCN(C(=O)c3ccc(NC(=O)N4Cc5ccccc5C4)nn3)CC2)C1 (stereo not drawn) [Example 17, N-{6-[(3-cyano-1-oxa-8-azaspiro[4.5]dec-8-yl)carbonyl]pyridazin-3-yl}-1,3-dihydro-2H-isoindole-2-carboxamide]	158
O=C(Nc1ccc(C(=O)N2CC3(CCOCC3)C2)nn1)N1Cc2ccccc2C1 [Example 18, N-[6-(7-oxa-2-azaspiro[3.5]non-2-ylcarbonyl)pyridazin-3-yl]-1,3-dihydro-2H-isoindole-2-carboxamide]	388
O=C(Nc1ccc(C(=O)N2CCC3(CCCO3)C2)nn1)N1Cc2ccccc2C1 (stereo not drawn) [Example 19, N-[6-(1-oxa-7-azaspiro[4.4]non-7-ylcarbonyl)pyridazin-3-yl]-1,3-dihydro-2H-isoindole-2-carboxamide]	394
O=C(Nc1ccc(C(=O)N2CCC3(CNCCC3F)C2)nn1)N1Cc2ccccc2C1 (stereo not drawn) [Example 20, N-{6-[(10-fluoro-2,7-diazaspiro[4.5]dec-2-yl)carbonyl]pyridazin-3-yl}-1,3-dihydro-2H-isoindole-2-carboxamide]	406

Structure (SMILES)	IC50 [nM]
O=C(Nc1ccc(C(=O)N2CCC3(CCNCC3)CC2)nn1)N1Cc2ccccc2C1 [Example 21, N-[6-(3,9-diazaspiro[5.5]undec-3-ylcarbonyl)pyridazin-3-yl]-1,3-dihydro-2H-isoindole-2-carboxamide]	101
O=C(Nc1ccc(C(=O)N2CCCC3(CCNC3)C2)nn1)N1Cc2ccccc2C1 (stereo not drawn) [Example 22, N-[6-(2,7-diazaspiro[4.5]dec-7-ylcarbonyl)pyridazin-3-yl]-1,3-dihydro-2H-isoindole-2-carboxamide]	1270
O=C(Nc1ccc(C(=O)N2CCC3(CCNC3)CC2)nn1)N1Cc2ccccc2C1 [Example 23, N-[6-(2,8-diazaspiro[4.5]dec-8-ylcarbonyl)pyridazin-3-yl]-1,3-dihydro-2H-isoindole-2-carboxamide]	140
O=C(NC1CCC12CNC2)c1ccc(NC(=O)N2Cc3ccccc3C2)nn1 (stereo not drawn) [Example 25, N-[6-(2-azaspiro[3.3]hept-5-ylcarbamoyl)pyridazin-3-yl]-1,3-dihydro-2H-isoindole-2-carboxamide]	2880
O=C(NC1[C@H]2CNC[C@@H]12)c1ccc(NC(=O)N2Cc3ccccc3C2)nn1 (stereo partly drawn) [Example 26, N-{6-[(1R,5S)-3-azabicyclo[3.1.0]hex-6-ylcarbamoyl]pyridazin-3-yl}-1,3-dihydro-2H-isoindole-2-carboxamide]	2890
O=C(NC[C@H]1CC2CNCCN2C1)c1ccc(NC(=O)N2Cc3ccccc3C2)nn1 (stereo partly drawn) [Example 27, N-(6-{[(7R)-octahydropyrrolo[1,2-a]pyrazin-7-ylmethyl]carbamoyl}pyridazin-3-yl)-1,3-dihydro-2H-isoindole-2-carboxamide]	602
O=C(Nc1ccc(C(=O)N2CC3(CCCNC3)C2)nn1)N1Cc2ccccc2C1 [Example 28, N-[6-(2,6-diazaspiro[3.5]non-2-ylcarbonyl)pyridazin-3-yl]-1,3-dihydro-2H-isoindole-2-carboxamide]	3150
O=C(Nc1ccc(C(=O)N2CC3(CCNCC3)C2)nn1)N1Cc2ccccc2C1 [Example 29, N-[6-(2,7-diazaspiro[3.5]non-2-ylcarbonyl)pyridazin-3-yl]-1,3-dihydro-2H-isoindole-2-carboxamide]	454
O=C(Nc1ccc(C(=O)N2CCC3(CNC3)C2)nn1)N1Cc2ccccc2C1 [Example 30, N-[6-(2,6-diazaspiro[3.4]oct-6-ylcarbonyl)pyridazin-3-yl]-1,3-dihydro-2H-isoindole-2-carboxamide]	7190
O=C(NCC1CCC2(CCNCC2)CO1)c1ccc(NC(=O)N2Cc3ccccc3C2)nn1 (stereo not drawn) [Example 31, N-{6-[(2-oxa-9-azaspiro[5.5]undec-3-ylmethyl)carbamoyl]pyridazin-3-yl}-1,3-dihydro-2H-isoindole-2-carboxamide]	253
O=C(NCC1CCC2(CCNCC2)O1)c1ccc(NC(=O)N2Cc3ccccc3C2)nn1 (stereo not drawn) [Example 32, N-{6-[(1-oxa-8-azaspiro[4.5]dec-2-ylmethyl)carbamoyl]pyridazin-3-yl}-1,3-dihydro-2H-isoindole-2-carboxamide]	782
O=C(NCC1COC2(CCNCC2)C1)c1ccc(NC(=O)N2Cc3ccccc3C2)nn1 (stereo not drawn) [Example 33, N-{6-[(1-oxa-8-azaspiro[4.5]dec-3-ylmethyl)carbamoyl]pyridazin-3-yl}-1,3-dihydro-2H-isoindole-2-carboxamide]	284
O=C(Nc1ccc(C(=O)N2CCC3(CC2)CNC3)nn1)N1Cc2ccccc2C1 [Example 34, N-[6-(2,7-diazaspiro[3.5]non-7-ylcarbonyl)pyridazin-3-yl]-1,3-dihydro-2H-isoindole-2-carboxamide]	218
O=C(Nc1ccc(C(=O)N2CCC3(CCNCC3)C2)nn1)N1Cc2ccccc2C1 [Example 35, N-[6-(2,8-diazaspiro[4.5]dec-2-ylcarbonyl)pyridazin-3-yl]-1,3-dihydro-2H-isoindole-2-carboxamide]	404
O=C(Nc1ccc(C(=O)N2CCC(C3CNC3)C2)nn1)N1Cc2ccccc2C1 (stereo not drawn) [Example 36, N-(6-{[3-(azetidin-3-yl)pyrrolidin-1-yl]carbonyl}pyridazin-3-yl)-1,3-dihydro-2H-isoindole-2-carboxamide]	791
O=C(NCc1nc2c([nH]1)CNCC2)c1ccc(NC(=O)N2Cc3ccccc3C2)nn1 [Example 37, N-{6-[(4,5,6,7-tetrahydro-3H-imidazo[4,5-c]pyridin-2-ylmethyl)carbamoyl]pyridazin-3-yl}-1,3-dihydro-2H-isoindole-2-carboxamide]	934
O=C(NC1COC2(CCNCC2)C1)c1ccc(NC(=O)N2Cc3ccccc3C2)nn1 (stereo not drawn) [Example 38, N-[6-(1-oxa-8-azaspiro[4.5]dec-3-ylcarbamoyl)pyridazin-3-yl]-1,3-dihydro-2H-isoindole-2-carboxamide]	869
O=C(NCc1nnc2n1CCCNC2)c1ccc(NC(=O)N2Cc3ccccc3C2)nn1 [Example 39, N-{6-[(6,7,8,9-tetrahydro-5H-[1,2,4]triazolo[4,3-a][1,4]diazepin-3-ylmethyl)carbamoyl]pyridazin-3-yl}-1,3-dihydro-2H-isoindole-2-carboxamide]	3260
